Assay results as given in patent US11345666B2, “Phenyl and pyridinyl substituted imidazoles as modulators of RORγT” (Janssen Pharmaceutica NV, priority 2018, dated 2022).
One block for each compound: values may come before it.

Experiments:
[1] = target: human RORγt ligand binding domain (RORγt LBD) (Homo sapiens (Human), UniProt P51449); experiment: RORγt ThermoFluor assay
Outline: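 Thermal shift of His-tagged human RORγt LBD (0.065 mg/mL) with 60 μM 1,8-ANS in 100 mM Hepes pH 7.0, 10 mM NaCl, 2.5 mM GSH, 0.002% Tween-20, heated at 1° C./min. Compounds in 1:2 series from a 10 mM DMSO stock; KD estimated from ΔTm using protein unfolding thermodynamics.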

[2] = target: full-length human RORγt (Homo sapiens (Human), UniProt P51449); experiment: RORγt (full-length human) reporter assay, conditions A or B; format: cell-based; settings: for inhibition at 0.67 µM: 0.67 μM compound concentration (****); for IC50: HEK293T cells, read-out: RORγt (FL) Reporter Assay A or B, IC50; for inhibition at 2 µM: 2 μM compound concentration (**); for inhibition at 6 µM: read-out: RORγt (FL) Reporter Assay A or B, % inhibition @ 6 μM, 6 μM compound concentration; for inhibition at 0.22 µM: 0.22 μM compound concentration (******)
Outline: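 HEK293T cells transiently co-transfected (PEI) with GAL4-DBD–RORγt, GAL4-firefly luciferase and CMV-Renilla reporters; condition A 35,000 cells/well, 170.5 ng DNA/well; condition B 8750 cells/well, 42.6 ng DNA/well.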

[3] = read-out: RORγt (FL) Reporter Assay A or B, % inhibition

full-length human RORγt, sequence (P51449 other isoform, or with tags, fused parts or gaps): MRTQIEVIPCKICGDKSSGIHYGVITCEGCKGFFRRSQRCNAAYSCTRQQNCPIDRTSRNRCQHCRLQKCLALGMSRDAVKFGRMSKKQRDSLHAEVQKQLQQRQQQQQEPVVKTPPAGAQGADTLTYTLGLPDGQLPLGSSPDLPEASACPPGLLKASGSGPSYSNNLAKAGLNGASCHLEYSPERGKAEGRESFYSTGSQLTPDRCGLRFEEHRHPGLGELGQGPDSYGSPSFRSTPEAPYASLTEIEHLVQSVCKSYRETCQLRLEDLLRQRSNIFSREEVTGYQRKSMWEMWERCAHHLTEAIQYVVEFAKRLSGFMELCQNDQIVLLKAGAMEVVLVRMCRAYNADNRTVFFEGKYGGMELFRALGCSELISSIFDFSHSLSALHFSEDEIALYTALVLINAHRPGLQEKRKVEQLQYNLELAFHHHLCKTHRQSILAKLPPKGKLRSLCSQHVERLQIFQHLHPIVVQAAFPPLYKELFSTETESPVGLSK
human RORγt ligand binding domain (RORγt LBD), sequence (P51449 other isoform, or with tags, fused parts or gaps): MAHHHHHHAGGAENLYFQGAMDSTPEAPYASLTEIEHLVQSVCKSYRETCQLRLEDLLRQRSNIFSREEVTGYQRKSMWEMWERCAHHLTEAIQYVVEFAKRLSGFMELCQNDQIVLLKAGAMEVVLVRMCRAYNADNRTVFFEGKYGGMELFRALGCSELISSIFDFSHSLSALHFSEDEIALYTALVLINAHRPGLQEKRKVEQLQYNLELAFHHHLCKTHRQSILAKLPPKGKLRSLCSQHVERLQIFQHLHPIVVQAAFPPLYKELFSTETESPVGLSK

Compound: CCc1nc(C(=O)NC[C@H]2CC[C@H](S(C)(=O)=O)CC2)c(Cl)n1-c1ccc(CC(C)C)cc1OC [Example 89, 5-Chloro-2-ethyl-1-(4-isobutyl-2-methoxyphenyl)-N-(((1r,4r)-4-(methylsulfonyl)cyclohexyl)methyl)-1H-imidazole-4-carboxamide]
Kd [1]: 0.2 nM
inhibition at 0.67 µM [2, 3]: 66%
IC50 [2]: 16 nM

Compound: CCc1nc(C(=O)NC[C@]2(O)CC[C@@H](S(C)(=O)=O)CC2)c(Cl)n1-c1ccc(CC(C)C)cc1OC [Example 90, 5-Chloro-2-ethyl-N-(((1s,4s)-1-hydroxy-4-(methylsulfonyl)cyclohexyl)methyl)-1-(4-isobutyl-2-methoxyphenyl)-1H-imidazole-4-carboxamide]
Kd [1]: 0.31 nM
inhibition at 2 µM [2, 3]: 67%
IC50 [2]: 21 nM

Compound: CCc1nc(C(=O)NC[C@H]2CC[C@H](S(C)(=O)=O)CC2)c(C#N)n1-c1ccc(CCC(F)(F)F)cc1F [Example 93, 5-Cyano-2-ethyl-1-(2-fluoro-4-(3,3,3-trifluoropropyl)phenyl)-N-(((1r,4r)-4-(methylsulfonyl)cyclohexyl)methyl)-1H-imidazole-4-carboxamide]
Kd [1]: 93 nM
inhibition at 2 µM [2, 3]: 65%
IC50 [2]: 330 nM

Compound: CCc1nc(C(=O)NC[C@H]2CC[C@H](S(C)(=O)=O)CC2)c(C(N)=O)n1-c1ccc(CCC(F)(F)F)cc1F [Example 94, 2-Ethyl-1-(2-fluoro-4-(3,3,3-trifluoropropyl)phenyl)-N^4-(((1r,4r)-4-(methylsulfonyl)cyclohexyl)methyl)-1H-imidazole-4,5-dicarboxamide]
Kd [1]: 250 nM
inhibition at 2 µM [2, 3]: 47%
IC50 [2]: 490 nM

Compound: CCc1nc(C(=O)NC[C@]2(O)CC[C@@H](S(C)(=O)=O)CC2)c(C#N)n1-c1ccc(CCC(F)(F)F)cc1F [Example 95, 5-Cyano-2-ethyl-1-(2-fluoro-4-(3,3,3-trifluoropropyl)phenyl)-N-(((1s,4s)-1-hydroxy-4-(methylsulfonyl)cyclohexyl)methyl)-1H-imidazole-4-carboxamide]
Kd [1]: 290 nM
IC50 [2]: 1200 nM
inhibition at 6 µM [2]: 72%

Compound: CCc1nc(C(=O)NC[C@]2(O)CC[C@@H](S(C)(=O)=O)CC2)c(C(N)=O)n1-c1ccc(CCC(F)(F)F)cc1F [Example 96, 2-Ethyl-1-(2-fluoro-4-(3,3,3-trifluoropropyl)phenyl)-N-(((1s,4s)-1-hydroxy-4-(methylsulfonyl)cyclohexyl)methyl)-1H-imidazole-4,5-dicarboxamide]
Kd [1]: 450 nM
IC50 [2]: 1400 nM
inhibition at 6 µM [2]: 75%

Compound: CCc1nc(C(=O)NC[C@H]2CC[C@H](S(C)(=O)=O)CC2)c(Cl)n1-c1ccc(CCCC(F)(F)F)cc1F [Example 97, 5-Chloro-2-ethyl-1-(2-fluoro-4-(4,4,4-trifluorobutyl)phenyl)-N-(((1r,4r)-4-(methylsulfonyl)cyclohexyl)methyl)-1H-imidazole-4-carboxamide]
Kd [1]: 14 nM
inhibition at 0.67 µM [2, 3]: 53%
IC50 [2]: 22 nM

Compound: CCc1nc(C(=O)NC[C@]2(O)CC[C@@H](S(C)(=O)=O)CC2)c(Cl)n1-c1ccc(CCCC(F)(F)F)cc1F [Example 98, 5-Chloro-2-ethyl-1-(2-fluoro-4-(4,4,4-trifluorobutyl)phenyl)-N-(((1s,4s)-1-hydroxy-4-(methylsulfonyl)cyclohexyl)methyl)-1H-imidazole-4-carboxamide]
Kd [1]: 33 nM
inhibition at 2 µM [2, 3]: 43%
IC50 [2]: 33 nM

Compound: CCc1nc(C(=O)NC[C@H]2CC[C@H](S(C)(=O)=O)CC2)c(Cl)n1-c1ccc(CC(C(F)(F)F)C(F)(F)F)cc1F [Example 99, 5-Chloro-2-ethyl-1-(2-fluoro-4-(3,3,3-trifluoro-2-(trifluoromethyl)propyl)phenyl)-N-(((1r,4r)-4-(methylsulfonyl)cyclohexyl)methyl)-1H-imidazole-4-carboxamide]
Kd [1]: 4 nM
inhibition at 0.22 µM [2, 3]: 99%
IC50 [2]: 16 nM

More lines, now with the values ahead:

Kd [1]: 4 nM
inhibition at 0.22 µM [2, 3]: 65%
IC50 [2]: 18 nM
Compound: CCc1nc(C(=O)NC[C@H]2CC[C@H](S(C)(=O)=O)CC2)c(Cl)n1-c1ccc(CC(C)(C)C(F)(F)F)cc1F [Example 101, 5-Chloro-2-ethyl-1-(2-fluoro-4-(3,3,3-trifluoro-2,2-dimethylpropyl)phenyl)-N-(((1r,4r)-4-(methylsulfonyl)cyclohexyl)methyl)-1H-imidazole-4-carboxamide]

Kd [1]: 8 nM
inhibition at 0.67 µM [2, 3]: 74%
IC50 [2]: 36 nM
Compound: CCc1nc(C(=O)NC[C@]2(O)CC[C@@H](S(C)(=O)=O)CC2)c(Cl)n1-c1ccc(CC(C)(C)C(F)(F)F)cc1F [Example 102, 5-Chloro-2-ethyl-1-(2-fluoro-4-(3,3,3-trifluoro-2,2-dimethylpropyl)phenyl)-N-(((1s,4s)-1-hydroxy-4-(methylsulfonyl)cyclohexyl)methyl)-1H-imidazole-4-carboxamide]

Kd [1]: 55 nM
inhibition at 0.22 µM [2, 3]: 40%
IC50 [2]: 170 nM
Compound: CCc1nc(C(=O)NC[C@]2(O)CC[C@@H](S(C)(=O)=O)CC2)c(C)n1-c1ccc(CC(C(F)(F)F)C(F)(F)F)c(F)c1 [Example 106, 2-Ethyl-1-(3-fluoro-4-(3,3,3-trifluoro-2-(trifluoromethyl)propyl)phenyl)-N-(((1s,4s)-1-hydroxy-4-(methylsulfonyl)cyclohexyl)methyl)-5-methyl-1H-imidazole-4-carboxamide]

Kd [1]: 100 nM
IC50 [2]: 340 nM
inhibition at 6 µM [2]: 99%
Compound: CCc1nc(C(=O)NC[C@]2(O)CC[C@@H](S(C)(=O)=O)CC2)c(Cl)n1-c1c(F)cc(CC(O)(C(F)(F)F)C(F)(F)F)cc1F [Example 108, 5-Chloro-1-(2,6-difluoro-4-(3,3,3-trifluoro-2-hydroxy-2-(trifluoromethyl)propyl)phenyl)-2-ethyl-N-(((1s,4s)-1-hydroxy-4-(methylsulfonyl)cyclohexyl)methyl)-1H-imidazole-4-carboxamide]

Kd [1]: 3.3 nM
inhibition at 0.07 µM ([2]; 0.07 μM compound concentration (*******), read-out: RORγt (FL) Reporter Assay A or B, % inhibition): 90%
IC50 [2]: 1.8 nM
Compound: CCc1nc(C(=O)NC[C@H]2CC[C@H](S(C)(=O)=O)CC2)c(C)n1-c1ccc(CC(C(F)(F)F)C(F)(F)F)cc1F [Example 110, 2-Ethyl-1-(2-fluoro-4-(3,3,3-trifluoro-2-(trifluoromethyl)propyl)phenyl)-5-methyl-N-(((r,4r)-4-(methylsulfonyl)cyclohexyl)methyl)-1H-imidazole-4-carboxamide]

Kd [1]: 1.9 nM
inhibition at 2 µM [2, 3]: 89%
IC50 [2]: 17 nM
Compound: CCc1nc(C(=O)NC[C@]2(O)CC[C@@H](S(C)(=O)=O)CC2)c(C(N)=O)n1-c1ccc(CC(C)(C)C(F)(F)F)cc1OC(F)(F)F [Example 112, 2-Ethyl-N^4-(((1s,4s)-1-hydroxy-4-(methylsulfonyl)cyclohexyl)methyl)-1-(4-(3,3,3-trifluoro-2,2-dimethylpropyl)-2-(trifluoromethoxy)phenyl)-1H-imidazole-4,5-dicarboxamide]

Kd [1]: 8.3 nM
inhibition at 2 µM [2, 3]: 88%
IC50 [2]: 44 nM
Compound: CCc1nc(C(=O)NC[C@H]2CC[C@H](S(C)(=O)=O)CC2)c(C#N)n1-c1ccc(CC(C)(C)C(F)(F)F)cc1OC(F)(F)F [Example 113, 5-Cyano-2-ethyl-N-(((1r,4r)-4-(methylsulfonyl)cyclohexyl)methyl)-1-(4-(3,3,3-trifluoro-2,2-dimethylpropyl)-2-(trifluoromethoxy)phenyl)-1H-imidazole-4-carboxamide]

Kd [1]: 110 nM
IC50 [2]: 660 nM
inhibition at 6 µM [2]: 66%
Compound: CCc1nc(C(=O)NC[C@]2(O)CC[C@@H](S(C)(=O)=O)CC2)c(C#N)n1-c1ccc(CCC(F)(F)F)cc1OC(F)(F)F [Example 114, 5-Cyano-2-ethyl-N-(((1s,4s)-1-hydroxy-4-(methylsulfonyl)cyclohexyl)methyl)-1-(2-(trifluoromethoxy)-4-(3,3,3-trifluoropropyl)phenyl)-1H-imidazole-4-carboxamide]

Kd [1]: 100 nM
IC50 [2]: 190 nM
inhibition at 6 µM [2]: 74%
Compound: CCc1nc(C(=O)NC[C@H]2CC[C@H](S(C)(=O)=O)CC2)c(C#N)n1-c1ccc(CCC(F)(F)F)cc1OC(F)(F)F [Example 115, 5-Cyano-2-ethyl-N-(((1r,4r)-4-(methylsulfonyl)cyclohexyl)methyl)-1-(2-(trifluoromethoxy)-4-(3,3,3-trifluoropropyl)phenyl)-1H-imidazole-4-carboxamide]

Kd [1]: 5000 nM
IC50 [2]: 3000 nM
inhibition at 6 µM [2]: 30%
Compound: CCc1nc(C(=O)NC[C@H]2CC[C@H](S(C)(=O)=O)CC2)cn1-c1cnc(CCC(F)(F)F)cc1OC [Example 116, 2-Ethyl-1-(4-methoxy-6-(3,3,3-trifluoropropyl)pyridin-3-yl)-N-(((1r,4r)-4-(methylsulfonyl)cyclohexyl)methyl)-1H-imidazole-4-carboxamide]

Kd [1]: 560 nM
IC50 [2]: 1500 nM
inhibition at 6 µM [2]: 88%
Compound: CCc1nc(C(=O)NC[C@H]2CC[C@H](S(C)(=O)=O)CC2)c(C#N)n1-c1cnc(CCC(F)(F)F)cc1OC [Example 117, 5-Cyano-2-ethyl-1-(4-methoxy-6-(3,3,3-trifluoropropyl)pyridin-3-yl)-N-(((1r,4r)-4-(methylsulfonyl)cyclohexyl)methyl)-1H-imidazole-4-carboxamide]
